From ChEMBL document CHEMBL5727120, “Substituted pyrrolidines as mGluR5 antagonists” (2019)

Molecular target: Metabotropic glutamate receptor 5 (Rattus norvegicus, UniProt P31424)
Assay: Functional Calcium Flux Assay: For functional assays, HEK293 cells stably expressing recombinant rat mGluR5 were seeded in 384-well plates and dye loaded using Fluo-8. Cells were then washed to remove the un-incorporated dye. Antagonist evaluation was performed following a 15 min incubation of the test compound followed by the addition of submaximal concentration of glutamate. Intracellular calcium ([Ca2+]i) measurements were performed using a fluorometric imaging plate reader (FLIPR, Molecular Devices). The glutamate-evoked increase in [Ca2+]i in the presence of the test compounds was compared to the response to glutamate alone (the positive control). Antagonist inhibition curves were fitted with a 4-parameter logistic equation giving IC50 values, and Hill coefficients using an iterative nonlinear curve fitting algorithm.

Chain of Metabotropic glutamate receptor 5 (P31424 whole entry): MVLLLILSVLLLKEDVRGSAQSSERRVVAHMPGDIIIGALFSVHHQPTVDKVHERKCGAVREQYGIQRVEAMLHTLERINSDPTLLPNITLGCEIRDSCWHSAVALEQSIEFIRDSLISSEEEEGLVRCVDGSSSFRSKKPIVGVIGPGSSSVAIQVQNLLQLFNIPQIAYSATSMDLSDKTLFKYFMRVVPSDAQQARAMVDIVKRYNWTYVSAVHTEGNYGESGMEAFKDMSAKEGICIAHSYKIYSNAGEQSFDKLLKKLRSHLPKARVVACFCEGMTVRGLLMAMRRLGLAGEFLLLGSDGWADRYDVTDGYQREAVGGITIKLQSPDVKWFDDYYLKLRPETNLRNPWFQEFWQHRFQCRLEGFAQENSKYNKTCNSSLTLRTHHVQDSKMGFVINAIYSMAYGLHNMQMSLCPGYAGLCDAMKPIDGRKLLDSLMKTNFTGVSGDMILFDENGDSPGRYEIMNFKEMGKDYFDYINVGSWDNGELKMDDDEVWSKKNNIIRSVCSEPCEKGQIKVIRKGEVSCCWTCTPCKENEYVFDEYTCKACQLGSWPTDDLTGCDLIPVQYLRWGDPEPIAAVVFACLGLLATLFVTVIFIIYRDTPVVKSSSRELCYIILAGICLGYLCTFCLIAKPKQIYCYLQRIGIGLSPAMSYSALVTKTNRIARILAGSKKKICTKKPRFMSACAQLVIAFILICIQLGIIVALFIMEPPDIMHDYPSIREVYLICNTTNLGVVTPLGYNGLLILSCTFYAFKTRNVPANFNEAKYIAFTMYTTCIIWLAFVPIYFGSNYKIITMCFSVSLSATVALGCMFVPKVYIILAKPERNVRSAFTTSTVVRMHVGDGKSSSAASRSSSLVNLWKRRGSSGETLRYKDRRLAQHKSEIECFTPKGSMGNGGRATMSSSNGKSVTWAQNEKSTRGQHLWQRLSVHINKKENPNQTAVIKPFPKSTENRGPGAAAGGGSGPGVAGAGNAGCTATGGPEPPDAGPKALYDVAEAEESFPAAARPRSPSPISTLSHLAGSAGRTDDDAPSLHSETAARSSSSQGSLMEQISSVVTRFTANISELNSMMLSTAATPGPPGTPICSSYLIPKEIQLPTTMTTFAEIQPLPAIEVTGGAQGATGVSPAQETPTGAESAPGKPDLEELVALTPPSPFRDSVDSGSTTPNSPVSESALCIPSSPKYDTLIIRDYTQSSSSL

- IC50: < 500 nM
Compound: N#Cc1cc(F)cc(N2CC3CC3(C#Cc3cccc(Cl)n3)C2)c1 (stereo unspecified)
